{"source": "patent US20200016107A1", "about": "“COMPOSITION AND METHOD FOR THE TOPICAL TREATMENT OF SEVERE ACNE” (CENTRO INTTERNACIONAL DE COSMIATRÍA, S.A.P.I. DE C.V., priority 2017, published 2020)", "origin": "cited, not measured here", "test_system": "sebaceous gland", "conditions": "oral administration"}
{"smiles": "CC1=C(/C=C/C(C)=C/C=C/C(C)=C\\C(=O)O)C(C)(C)CCC1", "note": "[13-cis-retinoic acid]", "values": [{"measurement": "effect on sebaceous gland secretion", "value": "almost completely suppresses this secretion"}, {"measurement": "patients with marked improvement", "value": "~100", "unit": "%"}]}
